Experimental data as given in patent publication US20080031884A1, “COMPOSITIONS AND METHODS FOR TREATING, REDUCING, AMELIORATING, OR ALLEVIATING POSTERIOR-SEGMENT OPHTHALMIC DISEASES” (priority 2006, published 2008).
Where “and” joins values, the source holds several entries; their conditions need not be identical. Equal entries are not always repeated. Entries after “also recorded” stand apart in the source; their conditions may differ.

How the values were obtained:
[1] = system: rabbit eye (anterior chamber paracentesis); assay: Rabbit paracentesis model, overall anti-inflammatory activity; type: in vivo; details: 0.1%, 0.5% and 1% topical formulations; preliminary conclusions; listed as BOL-303242-X
From the text: Inflammatory processes are multidimensional in origin, and are characterized by complex cellular and molecular events involving numerous components all of which have not been identified. Prostaglandins are among these mediators and play an important role in certain forms of ocular inflammation. Paracentesis of the anterior chamber in the rabbit eye induces inflammatory reaction due to the disruption of the blood-aqueous barrier (“BAB”), which is mediated, at least in part, by prostaglandin E2 [References 1-3 below]. Intraocular or topical administration of PGE2 disrupts the BAB. [Reference 4, below] The treatment schedule adopted in this study was similar to the clinical NSAIDs (Ocufen) treatment schedule used by surgeons for patients before cataract surgery.
Each rabbit was placed in a restraint device and tagged with the alphanumeric code. The formulations were instilled (50 μl) into the conjunctival sac of both eyes 180, 120, 90 and 30 min before the first paracentesis; then 15, 30, 90 min after the first paracentesis. To perform the first paracentesis the animals were anaesthetized by intraveneous injection of 5 mg/kg Zoletil® (Virbac; 2.5 mg/kg tiletamine HCl and 2.5 mg/kg zolazepam HCl) and one drop of local anesthetic (Novesina®, Novartis) was administered to the eye. […]

[2] = system: leukocytes (PMN) in aqueous humor; assay: Leukocytes (PMN) measurement in aqueous humor, rabbit paracentesis model; type: in vivo; details: aqueous humor at the second paracentesis; for PMN (number/μl): raw data per sample; for PMN numbers, Mean (number/μl): group mean
Procedure: Each rabbit was placed in a restraint device and tagged with the alphanumeric code. The formulations were instilled (50 μl) into the conjunctival sac of both eyes 180, 120, 90 and 30 min before the first paracentesis; then 15, 30, 90 min after the first paracentesis. To perform the first paracentesis the animals were anaesthetized by intraveneous injection of 5 mg/kg Zoletil® (Virbac; 2.5 mg/kg tiletamine HCl and 2.5 mg/kg zolazepam HCl) and one drop of local anesthetic (Novesina®, Novartis) was administered to the eye. Anterior chamber paracentesis was performed with a 26 G needle attached to a tuberculin syringe; the needle was introduced into the anterior chamber through the cornea, taking care not to damage the tissues. Two hours after the first paracentesis, the animals were sacrificed with 0.4 ml Tanax® (Intervet International B.V.) and the second paracentesis was performed. About 100 μl of aqueous humor were removed at the second paracentesis. Aqueous humor was immediately split in four aliquots and stored at −80° C. until analysis. Then both eyes were enucleated and the iris-ciliary body was carefully excised, placed in polypropylene tubes, and stored at −80° C. until analysis.
For the determination of the number of leukocytes we used a haemocytometer (Improved Neubauer Chamber; Brigth-line, Hausser Scientific) and a Polyvar 2 microscope (Reichert-Jung).

[3] = Side effects of corticosteroids (very preliminary data, not shown)

Cc1ccc2c(NCC(O)(CC(C)(C)c3cc(F)cc4c3OCC4)C(F)(F)F)cccc2n1 (stereo not drawn) [BOL]
Anti-inflammatory activity in the rabbit paracentesis model (conclusion) [1]: active; also recorded: as effective an anti-inflammatory drug as some of the commonly accepted prior-art steroids or NSAID | PMN (number/μl) ([2]; 1% topical formulation): 30 number/μl and 20 number/μl and 40 number/μl | Side effects of corticosteroids [3]: does not have some of the side effects of corticosteroids

C[C@@H]1C[C@H]2[C@@H]3CCC4=CC(=O)C=C[C@]4(C)[C@@]3(F)[C@@H](O)C[C@]2(C)[C@@]1(O)C(=O)CO [Dex, dexamethasone]
PMN numbers, Mean (number/μl) ([2]; 0.1% topical formulation): 30.000 number/μl

CC(C(=O)O)c1ccc(-c2ccccc2)c(F)c1 (stereo not drawn) [F, flurbiprofen]
PMN numbers, Mean (number/μl) ([2]; 0.03% topical formulation): 30.000 number/μl

CCOC(=O)O[C@]1(C(=O)OCCl)CC[C@H]2[C@@H]3CCC4=CC(=O)C=C[C@]4(C)[C@H]3[C@@H](O)C[C@@]21C [LE, loteprednol etabonate]
PMN (number/μl) ([2]; 0.5% topical formulation): 40 number/μl and 20 number/μl and 30 number/μl
